{"source": "patent US20240148940A1", "about": "“METHODS OF INHIBITION” (Queensland Eye Institute Foundation, priority 2022, published 2024)", "key": {"[1]": {"tested_on": "isolated porcine aortic adventitia", "experiment": "Uniaxial tensile measurements on isolated porcine aortic adventitia, irradiated vs non-irradiated", "settings": "0.1% w/v in saline, UV-A 365 nm, 45 mW/cm^2, 10 minutes, both sides, n=30", "description": "Twenty-five porcine aortas from the abdominal region were used in this study, sourced from an abattoir. The aorta specimens were processed by first removing the extraneous adipose and loose connective tissue debris from the external surface using surgical scissors. One cut was then performed along the longitudinal axis of each aortic tube, in order to obtain flat rectangular sheets. A surgical scalpel was used to make an initial cornerwise-interstitial incision between adventitia and media layers, and the adventitial layer was carefully dissected and peeled off by hand. […] The irradiance at the exposure site was monitored with the radiometer Dymax ACCU-CAL 50 (Dymax Corp., Torrington, CT, USA). […]\nAn Instron Materials Testing System Model #5943 (Instron, Norwood, MA, USA), equipped with a 50-N load cell, was used to measure uniaxially the tensile properties of isolated adventitia specimens (n=30), prior to and after irradiation. […] Strips (1 cm×3 cm) were cut, and their thickness and width were measured with a digital caliper (Digimax Global Inc., Toronto, Canada). […] The values for Young's moduli were computed from the recorded stress-strain plots in the linear region.\nIrradiation was conducted in the presence of a solution of riboflavin 5′-phosphate monosodium salt in saline in accordance with the procedure of Example 1. The results were expressed as mean values±standard error of the mean. […]"}, "[2]": {"tested_on": "isolated porcine aortic adventitia", "experiment": "Biaxial tensile measurements on isolated porcine aortic adventitia", "settings": "25% stretch, UV-A 365 nm, 45 mW/cm^2, 10 minutes, n=23", "description": "Twenty-three porcine aortas from the abdominal region were used in this study and processed initially as described in Example 1. Irradiation was conducted in the presence of a solution of riboflavin 5′-phosphate monosodium salt in saline in accordance with the procedure of Example 1. The isolated adventitial specimens were then cut into squares of 14 mm×14 mm, and thickness was measured with a digital caliper at three spots and averaged. The tensile properties were measured and recorded biaxially in the CS BioTester™ 5000 biotesting system (CellScale Biomaterials Testing, Waterloo, ON, Canada), equipped with two 2.5-N load cells, using a set of four BioRakes™ that consisted each of 5 tungsten tines spaced evenly. All samples were submerged in a temperature-controlled bath containing PBS at 37° C., and tested by stretching the gripped area (11 mm×11 mm) to 25% of total stretch, at a rate of 1%/s. The samples were preconditioned for 10 cycles, and the tenth cycle was used for subsequent analysis. Assuming that tissue was incompressible and had negligible shear components, the Cauchy stress (σ) was determined with the equations: […]\nIn these equations, F is the measured load, λ is the stretch, X is the initial length, T is the averaged initial thickness of the tissue sample. […] The stretch was calculated as follows: […]\nThese characteristics were evaluated for 25% stretch (strain). […]"}, "[3]": {"tested_on": "isolated porcine aortic adventitia subjected to collagenase", "experiment": "Uniaxial tensile testing of enzymatically degraded (collagenolysis) isolated porcine aortic adventitia", "settings": "collagenase 20 U/mL, 8 or 20 hours, UV-A 365 nm, 45 mW/cm^2, 10 minutes", "description": "An Instron Materials Testing System Model #5943 (Instron, Norwood, MA, USA), equipped with a 50-N load cell, was used to measure uniaxially the tensile properties of isolated adventitia specimens (n=30), prior to and after irradiation. Irradiation was conducted in the presence of a solution of riboflavin 5′-phosphate monosodium salt in saline in accordance with the procedure of Example 1. Before measurements, each specimen was soaked in phosphate buffered saline (PBS) for at least 1 hour at room temperature. Strips (1 cm×3 cm) were cut, and their thickness and width were measured with a digital caliper (Digimax Global Inc., Toronto, Canada). Thirty measurements for specimens in each set of samples (non-irradiated and irradiated) were carried out along the longitudinal direction at a set gauge distance of 16 mm and a speed of 10 mm/min. The values for Young's moduli were computed from the recorded stress-strain plots in the linear region.\nThirty porcine adventitial specimens were isolated and exposed to UV-A radiation as described in Example 1. Irradiation was conducted in the presence of a solution of riboflavin 5′-phosphate monosodium salt in saline in accordance with the procedure of Example 1. Non-irradiated and irradiated adventitial specimens, as sets of 10 pieces each (5 cm×3 cm), were soaked in saline for 1 hour with gentle shaking, and then placed into the wells of 6-well plates. A solution containing 20 U/mL (˜0.08 mg/mL) collagenase was prepared in Tris buffer (0.05 M, pH 7.4), which also contained calcium chloride (10 mM) and sodium azide (0.02%). To each well, 5 mL of this solution was added to cover the samples. The well plates were placed in an orbital shaker and shaken at 160 rpm for either 8 hours or 20 hours at 37° C. […]\nThe three sets of adventitial specimens designated as (1), (2) and (3) in Example 5 were evaluated by uniaxial tensile testing following the procedure described in Example 2. […]"}}}
{"smiles": "Cc1cc2nc3c(=O)[nH]c(=O)nc-3n(C[C@H](O)[C@H](O)[C@H](O)COP(=O)([O-])O)c2cc1C.[Na+]", "note": "[riboflavin 5′-phosphate monosodium salt]", "values": [{"measurement": "Young's modulus (stiffness), difference between non-irradiated and irradiated specimens", "setting": "[1]; p=0.0012", "result": "statistically significant"}, {"measurement": "ultimate stress (maximum load at the time of rupture), difference between non-irradiated and irradiated specimens", "setting": "[1]; p=0.0015", "result": "statistically significant"}, {"measurement": "Cauchy stress, difference between non-irradiated and irradiated specimens", "setting": "[2]; circumferential (p=1.4×10^−3) and longitudinal (p=5.3×10^−4)", "result": "high level of statistical significance"}, {"measurement": "tangent modulus (stiffness), difference between non-irradiated and irradiated specimens", "setting": "[2]; circumferential (p=6.8×10^−5) and longitudinal (p=7.1×10^−5)", "result": "high level of statistical significance"}, {"measurement": "Young's modulus (stiffness) vs degradation time, samples first irradiated then subjected to collagenolysis (I/D) compared with D and D/I", "setting": "[3]; 37° C., n=30", "result": "highest"}, {"measurement": "ultimate stress (strength) vs degradation time, samples first irradiated then subjected to collagenolysis (I/D) compared with D and D/I", "setting": "[3]; 37° C., n=30", "result": "highest"}, {"measurement": "statistical differences between degraded non-irradiated samples (D) and those irradiated after degradation (D/I), modulus and stress", "setting": "[3]; p~0.2-0.5", "result": "low significance"}]}
